Assay results reported in article PMC8508960, “Ruthenium Half-Sandwich Type Complexes with Bidentate Monosaccharide Ligands Show Antineoplastic Activity in Ovarian Cancer Cell Models through Reactive Oxygen Species Production” (International Journal of Molecular Sciences, 2021).
Several values for one entry are separate records, joined by “and”; a condition that tells them apart may be missing. Equal values may be shown once. Entries after “also recorded” stand apart in the source; their conditions may differ.

Legend:
Assay type in all cases: cell-based
[1] = test system: A2780 human ovarian carcinoma cells; experiment: SRB proliferation assay (48 h) on A2780 cells; settings: for cytostatic activity in long-term SRB assay (in words): A2780 cells, 100–0.0017 µM; for A2780 Hill Slope / IC50: SRB, nonlinear regression, N/A = could not be calculated/had no effect
Experimental: (§1) Cells were cultured under standard cell culture conditions, 37 °C, 5% CO2, humidified atmosphere. A2780 cells were cultured in RMPI 1640 medium supplemented with 10% fetal calf serum, 2 mM glutamine, and 1% penicillin–streptomycin (Sigma-Aldrich). ID8 cells were cultured in high-glucose DMEM (4.5 g/L glucose) supplemented with 4% fetal calf serum, 2 mM glutamine, 1% penicillin–streptomycin (Sigma-Aldrich), and 1% ITS supplement (Sigma-Aldrich I3146). U251 cells were maintained in MEM (Sigma-Aldrich), 10% fetal bovine serum (Sigma-Aldrich), 1% penicillin/streptomycin (Invitrogene), and 2 mM glutamine. MCF7 cells were maintained in MEM (Sigma-Aldrich), 10% fetal bovine serum (Sigma-Aldrich), 1% penicillin/streptomycin (Invitrogen, Waltham, MA, USA), and 2 mM glutamine. Capan2 cells were maintained in MEM (Sigma-Aldrich), 10% fetal bovine serum (Sigma-Aldrich), 1% penicillin/streptomycin (Invitrogen), and 2 mM glutamine. Human primary dermal fibroblasts were cultured in low-glucose DMEM (1 g/L glucose) supplemented with 20% fetal calf serum, 2 mM glutamine, and 1% penicillin–streptomycin (Sigma-Aldrich).
(§2) The SRB accumulation assay assesses protein content in a sample, and it was used to assess cell proliferation. The SRB accumulation assay was performed similarly to [68]. Cells were seeded in 96-well plates. The next day, cells were treated with the compounds for 48 h in the concentrations indicated in a cell incubator. At the end of treatment, cells were fixed with 10% trichloroacetic acid (TCA). Fixed cells were stained with SRB (0.4% m/v dissolved in 1% acetic acid) for 60 min. Fixed cells were washed in 1% acetic acid three times; acetic acid was removed, and cells were left to dry. Protein-bound SRB was released by adding 100 µL of 10 mM Tris base. Plates were measured in a plate photometer (Thermo Scientific Multiscan GO spectrophotometer, Waltham, MA, USA) at 540 nm. On each plate, wells were designed to contain untreated cells. In calculations, the readings for these wells were considered as 1, and all readings were expressed relative to these values.
(§3) Statistical analysis was performed using Graphpad Prism version 8.0.1. Values were tested for normal distribution using the D’Agostino and Pearson normality test. When necessary, values were log-normalized or were normalized using the Box–Cox normalization method, as indicated in the figure captions. Nonlinear regression was performed using the built-in “[Inhibitor] vs. response—variable slope (four parameters), least square fit” utility of Graphpad that yielded IC50 and Hill slope values.

ID8 cells = experiment: SRB proliferation assay (48 h) on ID8 cells; settings: for ID8 Hill Slope / IC50: SRB, nonlinear regression, N/A = could not be calculated/had no effect; for cytostatic activity in long-term SRB assay (in words): ID8 cells
Experimental: as §1, §2, §3

[2] = test system: human primary skin fibroblasts; experiment: SRB proliferation assay (48 h) on primary fibroblasts
Experimental: as §1, §2, §3

[3] = test system: A2780 human ovarian carcinoma cells; experiment: MTT reduction assay (4 h, rapid toxicity) on A2780 cells
Experimental: as §1
The MTT reduction assay assesses the activity of mitochondrial complex I, and it was used to assess rapid toxicity. The MTT reduction assay was performed similarly to [67]. Cells were seeded in 96-well plates. The next day, cells were treated with the compounds for 4 h in the concentrations indicated in a cell incubator. At the end of treatment, MTT was added in 0.5 mg/mL final concentration, and cells were incubated at 37 °C in a cell incubator. Then, culture media was removed, the reduced MTT dye was resolved in dimethyl sulfoxide (DMSO), and plates were measured in a plate photometer (Thermo Scientific Multiscan GO spectrophotometer, Waltham, MA, USA) at 540 nm. On each plate, wells were designed to contain untreated/vehicle-treated cells. In calculations, the readings for these wells were considered as 1, and all readings were expressed relative to these values.

[4] = SRB, nonlinear regression, N/A = could not be calculated/had no effect

SMILES | cytostatic activity in long-term SRB assay (in words) [1] | effect in long-term SRB assay (in words) ([2]; primary human fibroblasts) | A2780 Hill Slope [1] | IC50 [1] [µM] | other results
CC(=O)OCC1OC(c2n[n+]3c(o2)-c2cccc[n+]2[Ru-]3[Cl])C(OC(C)=O)C(OC(C)=O)C1OC(C)=O.Cc1ccc(C(C)C)cc1.F[P-](F)(F)(F)(F)F (mixture of isomers) [Ru-5] | abrogated the inhibitory activity |  |  |  | 
Cc1ccc(C(C)C)cc1.F[P-](F)(F)(F)(F)F.OCC1OC(c2nnc(-c3ccccn3)o2)C(O)C(O)C1O.[Cl][Ru+] (mixture of isomers) [Ru-10] | abrogated the inhibitory activity |  |  |  | 
N.N.O=C([O-])C1(C(=O)[O-])CCC1.[Pt+2] [Carboplatin, carboplatin, reference compound] |  | no effect | 1.02 | 28 | ID8 Hill Slope (ID8 cells): 0.62
N.N.[Cl][Pt][Cl] [Cisplatin, cisplatin, reference compound] |  |  | 1.20 | 1.21 | IC50 (ID8 cells): 10.8 µM; ID8 Hill Slope (ID8 cells): 0.99; Fibroblast Hill Slope [2, 4]: 1.53; IC50 ([2]; SRB, nonlinear regression, N/A = could not be calculated/had no effect, read-out: Fibroblast IC50): 11.9 µM; effect in SRB assay above 10 µM ([2]; primary human fibroblasts, above 10 µM): cytostatic
O=C(OC[C@H]1O[C@@H](n2cc(-c3ccccn3)nn2)[C@H](OC(=O)c2ccccc2)[C@@H](OC(=O)c2ccccc2)[C@@H]1OC(=O)c1ccccc1)c1ccccc1 [Complex L-2a, 1-(2′,3′,4′,6′-Tetra-O-benzoyl-β-D-glucopyranosyl)-4-(pyridin-2-yl)-1,2,3-triazole] | no biological activity; also recorded: none of the corresponding ligands (L-2a, L-4, L-6, and L-8) had cytostatic properties | no effect |  |  | cytostatic activity in long-term SRB assay (in words) (ID8 cells): none of the corresponding ligands (L-2a, L-4, L-6, and L-8) had cytostatic properties; effect in short-term MTT assay, rapid toxicity (in words) [3]: no biological activity
O=C(OC[C@H]1O[C@@H](c2nnc(-c3ccccn3)o2)[C@H](OC(=O)c2ccccc2)[C@@H](OC(=O)c2ccccc2)[C@@H]1OC(=O)c1ccccc1)c1ccccc1 [Complex L-4, 2-(2′,3′,4′,6′-Tetra-O-benzoyl-β-D-glucopyranosyl)-5-(pyridin-2-yl)-1,3,4-oxadiazole] | no biological activity; also recorded: none of the corresponding ligands (L-2a, L-4, L-6, and L-8) had cytostatic properties | no effect |  |  | cytostatic activity in long-term SRB assay (in words) (ID8 cells): none of the corresponding ligands (L-2a, L-4, L-6, and L-8) had cytostatic properties; effect in short-term MTT assay, rapid toxicity (in words) [3]: no biological activity
c1ccc(-n2cc(-c3ccccn3)nn2)cc1 [Complex L-13, 1-phenyl-4-(pyridine-2-yl)-1,2,3-triazole] | Neither of the free ligands, L-13 or L-14, had cytostatic activity |  |  |  | 
c1ccc(-c2nnc(-c3ccccn3)o2)cc1 [Complex L-14, 2-phenyl-5-(pyridine-2-yl)-1,3,4-oxadiazole] | Neither of the free ligands, L-13 or L-14, had cytostatic activity |  |  |  | 
O=C1[O][Pt]2([NH][C@@H]3CCCC[C@H]3[NH]2)[O]C1=O [Oxaliplatin, oxaliplatin, reference compound] |  | no effect | 1.27 | 0.12 | IC50 (ID8 cells): 4.59 µM; ID8 Hill Slope (ID8 cells): 1.58; Fibroblast Hill Slope [2, 4]: 0.37
Cc1ccc(C(C)C)cc1.F[P-](F)(F)(F)(F)F.[Cl][Ru+].c1ccc(-n2cc(-c3ccccn3)nn2)cc1 [Ru-13] | lowered the cytostatic capacity |  | 1.5 and 1.57 | 12 | 
Cc1ccc(C(C)C)cc1.F[P-](F)(F)(F)(F)F.[Cl][Ru+].c1ccc(-c2nnc(-c3ccccn3)o2)cc1 [Ru-14] | no cytostatic activity; also recorded: fully abrogated it |  | 0.77 |  | 
